This note sets out measurements from patent US7902225B2, “Mycobacterial inhibitors” (Janssen Pharmaceutica NV, priority 2005, dated 2011).

The first assay has as its system M. Smegmatis ATCC607. Nature of the assay: In-vitro anti-bacterial activity against strain M. smegmatis ATCC607 (growth inhibition, Alamar Blue fluorescence). In kind it is cell-based. Particulars: 48 hours at 37° C. As for the experimental part:
D.2. In-vitro Method for Testing Compounds for Anti-bacterial Activity Against Strain M. Smegmatis ATCC607. Flat-bottom, sterile 96well plastic microtiter plates were filled with 180 μl of sterile deionized water, supplemented with 0.25% BSA. Subsequently, stock solutions (7.8× final test concentration) of compounds were added in 45 μl volumes to a series of duplicate wells in column 2 so as to allow evaluation of their effects on bacterial growth. Serial five-fold dilutions (45 μl in 180 μl) were made directly in the microtiter plates from column 2 to 11 using a customised robot system (Zymark Corp., Hopkinton, Mass.). Pipette tips were changed after every 3 dilutions to minimize pipetting errors with high hydrophobic compounds. Untreated control samples with (column 1) and without (column 12) inoculum were included in each microtiter plate. Approximately 250 CFU per well of bacteria inoculum, in a volume of 100 μl in 2.8× Mueller-Hinton broth medium, was added to the rows […]. The same volume of broth medium without inoculum was added to column 12 in row A to H. The cultures were incubated at 37° C. for 48 hours in a humidified 5% CO2 atmosphere (incubator with open air valve and continuous ventilation). At the end of incubation, two days after inoculation, the bacterial growth was quantitated fluorometrically. Therefore Alamar Blue (10×) was added to all wells in a volume of 20 μl and plates were incubated for another 2 hours at […] The fluorescence was read in a computer-controlled fluorometer (Cytofluor, Biosearch) at an excitation wavelength of 530 nm and an emission wavelength of 590 nm (gain 30). The % growth inhibition achieved by the compounds was calculated according to standard methods. The pIC50 was defined as the 50% inhibitory concentration for bacterial growth.
For orientation: Resazurin is reduced to fluorescent resorufin, in cell work by metabolically active cells.
In the case of `CN(C)CCC(O)(c1ccccc1)c1cc(Br)cc2cc(Cc3ccccc3)c(-n3ccnn3)nc12` (centres unmarked) [Compound 65], the “M. smegmatis (pIC50)” value was determined as 5.2. For the compound `CN(C)CCC(O)(c1ccccc1)c1cc(Br)cc2cc(Cc3ccccc3)c(-n3cncn3)nc12` (centres unmarked) [Compound 62], the “M. smegmatis (pIC50)” value amounted to 5.3. On the same count and under the same terms, the value for `COCCCNc1nc2c(C(O)(CCN(C)C)c3ccccc3)cc(Br)cc2cc1Cc1ccccc1` (centres unmarked) [Compound 90] was 5.5.

Regarding `CN(C)CCC(O)(c1cccc2ccccc12)c1cc(Br)cc2cc(Cc3ccccc3)c(N3CCC(Cc4ccccc4)CC3)nc12` (centres unmarked) [Compound 64], the “M. smegmatis (pIC50)” value was determined as 5.2. With `COc1cc(-c2ccccc2)c2cc(C(O)(CCN(C)C)c3ccccc3)ccc2n1` (centres unmarked) [Compound 27], the “M. smegmatis (pIC50)” value is listed as 5.2.

Turning to `CC1CCN(c2nc3c(C(O)(CCN(C)C)c4ccccc4)cc(Br)cc3cc2Cc2ccccc2)CC1` (centres unmarked) [Compound 91], the “M. smegmatis (pIC50)” value was 5.3.

Regarding `CN(C)CCC(O)(c1cccc2ccccc12)c1cc(Br)cc2cc(Cc3ccccc3)c(-n3ccnc3)nc12` (centres unmarked) [Compound 46], the “M. smegmatis (pIC50)” value worked out at 6.6. On the same count and under the same terms, the value for `CN(C)CCC(O)(c1ccccc1)c1cc(Br)cc2cc(Cc3ccccc3)c(-n3ccnc3)nc12` (centres unmarked) [Compound 59] was 5.8; that for `CN(C)CCC(O)(c1ccccc1)c1cc(Br)cc2cc(Cc3ccccc3)c(NCCCN3CCCC3=O)nc12` (centres unmarked) [Compound 92] was 5.2. The same measure, in the same setting: the value for `CN(C)CCC(O)(c1cccc2ccccc12)c1cc(Br)cc2cc(-c3ccccc3)c(-n3cncn3)nc12` (centres unmarked) [Compound 56] was 5.8; that for `COc1nc2cccc(C(O)(CCN(C)C)c3c(F)cccc3F)c2cc1-c1ccccc1` (centres unmarked) [Compound 28] was 5.1.

As to `CN(C)CCC(O)(c1ccccc1)c1cc(Br)cc2cc(Cc3ccccc3)c(N3CCN(c4ccccn4)CC3)nc12` (centres unmarked) [Compound 85], the “M. smegmatis (pIC50)” value came out at 5.7. Consider `CN(C)CCC(O)(c1ccccc1)c1cc2nc(N3CCCC3)c(Cc3ccccc3)cc2cc1Br` (centres unmarked) [Compound 58], for which the “M. smegmatis (pIC50)” value is 5.8.

Still in this assay, the particulars now being: Mycolicibacterium smegmatis, 48 hours at 37° C., read-out: M. smegmatis (pIC50) (converted).
With `CN(C)CCC(O)(Cc1c(Cc2ccccc2)c(-c2ccccc2)nc2ccccc12)c1cc(F)cc(F)c1` (centres unmarked) [Compound 42], the IC50 was 39800 nM. The same measure, in the same setting: as for `CN(C)CCC(O)(c1ccccc1)c1cc(Br)cc2cc(Cc3ccccc3)c(NCCCN3CCOCC3)nc12` (centres unmarked) [Compound 87], the figure is 2510 nM. With `COc1nc2cccc(C(O)(CCN(C)C)c3ccccc3)c2cc1-c1ccccc1` (centres unmarked) [Compound 20], the IC50 was 31600 nM. Take `CN(C)CCC(O)(c1ccccc1)c1ccc2nc(-c3cccnc3)cc(-c3ccccc3)c2c1` (centres unmarked) [Compound 71]: the IC50 was 1580 nM. Consider `CN(C)CCC(O)(c1cccc2ccccc12)c1cc(Br)cc2cc(Cc3ccccc3)c(N3CCOCC3)nc12` (centres unmarked) [Compound 51], for which the IC50 was 1000 nM. For `CN(C)CCC(O)(c1ccco1)c1cc(Br)cc2cc(-c3ccccc3)c(-n3ccnc3)nc12` (centres unmarked) [Compound 63], the IC50 was 6310 nM.

As for `CN(C)CCC(O)(c1ccccc1)c1cc2nc(N(C)C)c(Cc3ccccc3)cc2cc1Br` (centres unmarked) [Compound 67], the IC50 is 20000 nM. On the same count and under the same terms, the value for `COc1nc2c(C(O)(CCN(C)C)c3cc(F)cc(F)c3)cc(-c3cccnc3)cc2cc1-c1ccccc1` (centres unmarked) [Compound 13] was 398 nM; that for `Cc1cc(-c2ccccc2)c2cc(C(O)(CCN(C)C)c3ccco3)ccc2n1` (centres unmarked) [Compound 6] was 31600 nM. Consider `CN(C)CCC(O)(c1ccccc1)c1cc(Br)cc2cc(Cc3ccccc3)c(N3CCC(C(N)=O)CC3)nc12` (centres unmarked) [Compound 94], for which the IC50 was 7940 nM.

Take `CN(C)CCC(O)(Cc1c(Cc2ccccc2)c(N2CCOCC2)nc2ccccc12)c1cc(F)cc(F)c1` (centres unmarked) [Compound 31]: the IC50 is 1260 nM. Turning to `CN(C)CCC(O)(c1cccs1)c1cc(Br)cc2cc(Cc3ccccc3)c(N3CCN(C)CC3)nc12` (centres unmarked) [Compound 35], the IC50 was 1580 nM. Still for that read-out and setting: as for `CN(C)CCC(O)(c1ccccc1)c1cc(Br)cc2cc(Cc3ccccc3)c(N3CC=CCC3)nc12` (centres unmarked) [Compound 81], the figure is 1260 nM. On the same count and under the same terms, as for `CN(C)CCC(O)(c1cccc2ccccc12)c1cc(Br)cc2cc(Cc3ccccc3)c(N3CCN(C(c4ccccc4)c4ccccc4)CC3)nc12` (centres unmarked) [Compound 69], the figure is 39800 nM. Consider `CN(C)CCC(O)(Cc1c(Cc2ccccc2)c(N2CCCC2)nc2ccccc12)c1cc(F)cc(F)c1` (centres unmarked) [Compound 4], for which the IC50 was 251 nM. `CN(C)CCC(O)(c1ccccc1)c1cc(-c2cccnc2)cc2cc(-c3ccccc3)c(-c3cccnc3)nc12` (centres unmarked) [Compound 76]: the IC50 was 1580 nM.

With `COc1nc2cccc(C(O)(CCN(C)C)c3cccc4ccccc34)c2cc1-c1ccccc1` (centres unmarked) [Compound 18], the IC50 is 1580 nM. `CN(C)CCC(O)(Cc1c(-c2ccccc2)c(-c2ccccc2)nc2ccccc12)c1cc(F)cc(F)c1` (centres unmarked) [Compound 41]: the IC50 is 31600 nM.

Take `COc1nc2ccc(C(O)(CCN(C)C)c3cc(F)cc(F)c3)cc2cc1Cc1ccc(C)cc1` (centres unmarked) [Compound 2]: the IC50 was 1260 nM. The same measure, in the same setting: as for `CN(C)CCC(O)(c1cccc2ccccc12)c1cc(Br)cc2cc(Cc3ccccc3)c(N3CCN(C(=O)c4ccco4)CC3)nc12` (centres unmarked) [Compound 54], the figure is 1260 nM. Still for that read-out and setting: the value for `COc1nc2cccc(C(O)(CCN(C)C)c3cc(F)cc(F)c3)c2cc1-c1ccccc1` (centres unmarked) [Compound 1] was 1260 nM. Still for that read-out and setting: the value for `CN(C)CCC(O)(c1ccccc1)c1cc(Br)cc2cc(-c3ccccc3)c(-n3cncn3)nc12` (centres unmarked) [Compound 66] was 12600 nM; that for `COc1nc2c(C(O)(CCN(C)C)c3ccco3)cc(Br)cc2cc1-c1ccccc1` (centres unmarked) [Compound 26] was 2000 nM; that for `CN(C)CCC(O)(c1ccccc1)c1cc(Br)cc2cc(Cc3ccccc3)c(N(C)CCc3ccccc3)nc12` (centres unmarked) [Compound 83] was 1580 nM. Take `CN(C)CCC(O)(c1cccc2ccccc12)c1cc(Br)cc2cc(Cc3ccccc3)c(N3CCc4ccccc4C3)nc12` (centres unmarked) [Compound 50]: the IC50 is 794 nM. For `Cc1cc(-c2ccccc2)c2cc(C(O)(CCN(C)C)c3ccccc3)ccc2n1` (centres unmarked) [Compound 43], the IC50 was 12600 nM. For the compound `CN(C)CCC(O)(c1ccccc1)c1cc(Br)cc2cc(Cc3ccccc3)c(N3CCN(c4ncccn4)CC3)nc12` (centres unmarked) [Compound 89], the IC50 is 2510 nM. Same read-out and setting: as for `COc1nc2c(C(O)(CCN(C)C)c3cccs3)cc(C)cc2cc1Cc1ccccc1` (centres unmarked) [Compound 16], the figure is 1580 nM; as for `COc1nc2c(C(O)(CCN(C)C)c3cccs3)cc(Br)cc2cc1Cc1ccccc1` (centres unmarked) [Compound 15], 7940 nM. Same read-out and setting: the value for `COc1nc2cccc(C(O)(CCN(C)C)c3ccco3)c2cc1-c1ccccc1` (centres unmarked) [Compound 21] was 31600 nM; that for `CN(C)CCC(O)(c1cccc2ccccc12)c1cc(Br)cc2cc(Cc3ccccc3)c(N3CCN(c4n[nH]c5ccccc45)CC3)nc12` (centres unmarked) [Compound 48] was 631 nM; that for `CN(C)CCC(O)(c1cc(F)cc(F)c1)c1cccc2nc(-n3cncn3)c(-c3ccccc3)cc12` (centres unmarked) [Compound 33] was 31600 nM.

With `COc1cc(-c2ccccc2)c2cc(C(O)(CCN(C)C)c3ccco3)ccc2n1` (centres unmarked) [Compound 29], the IC50 is 31600 nM. Still for that read-out and setting: as for `CN(C)CCC(O)(c1ccco1)c1cc(Br)cc2cc(-c3ccccc3)c(-n3cncn3)nc12` (centres unmarked) [Compound 68], the figure is 31600 nM.

As for `COc1nc2c(C(O)(CCN(C)C)c3cccs3)cc(-c3cccnc3)cc2cc1Cc1ccccc1` (centres unmarked) [Compound 77], the IC50 is 12600 nM. Same read-out and setting: the value for `COc1nc2c(C(O)(CCN(C)C)c3cc(F)cc(F)c3)cc(Br)cc2cc1-c1ccccc1` (centres unmarked) [Compound 12] was 1580 nM; that for `CN(C)CCC(O)(c1cccs1)c1cc(Br)cc2cc(Cc3ccccc3)c(-n3ccnc3)nc12` (centres unmarked) [Compound 53] was 1260 nM.

`CN(C)CCC(O)(c1cc(F)cc(F)c1)c1ccc2nc(-c3cccnc3)cc(-c3ccccc3)c2c1` (centres unmarked) [Compound 8]: the IC50 is 1580 nM. On the same count and under the same terms, the value for `CN(C)CCC(O)(c1cccs1)c1cc(Br)cc2cc(Cc3ccccc3)c(N(C)C)nc12` (centres unmarked) [Compound 73] was 1580 nM. For the compound `COc1nc2cccc(C(O)(CCN(C)C)c3ccc4ccccc4c3)c2cc1-c1ccccc1` (centres unmarked) [Compound 19], the IC50 was 7940 nM.

With `CN(C)CCC(O)(c1ccccc1)c1cc(Br)cc2cc(Cc3ccccc3)c(N3CCC(Cc4ccccc4)CC3)nc12` (centres unmarked) [Compound 84], the IC50 is 2000 nM. Consider `CN(C)CCC(O)(c1ccc2nc(-c3cccnc3)cc(-c3ccccc3)c2c1)c1ccco1` (centres unmarked) [Compound 72], for which the IC50 was 6310 nM. On to `CN(C)CCC(O)(c1ccccc1)c1cc(Br)cc2cc(Cc3ccccc3)c(N(C)C)nc12` (centres unmarked) [Compound 78], for which the IC50 is 1580 nM. The same measure, in the same setting: the value for `CN(C)CCC(O)(c1cccc2ccccc12)c1cccc2nc(N3CCN(C)CC3)c(-c3ccccc3)cc12` (centres unmarked) [Compound 36] was 10000 nM. As for `CN(C)CCC(O)(c1ccccc1)c1cc2nc(N3CCN(Cc4ccc5c(c4)OCO5)CC3)c(Cc3ccccc3)cc2cc1Br` (centres unmarked) [Compound 60], the IC50 is 2000 nM. In the case of `CN(C)CCC(O)(Cc1c(-c2ccccc2)c(-c2ccco2)nc2ccccc12)c1cc(F)cc(F)c1` (centres unmarked) [Compound 39], the IC50 was 1260 nM.
